Data reported in paper PMC9081329, “Pharmacokinetics, Mass Balance, Excretion, and Tissue Distribution of Plasmalogen Precursor PPI-1011” (Frontiers in Cell and Developmental Biology, 2022).
“And” between values parts separate entries of the source, which are not always exact repeats. Identical values can stand only once.

Experiments:
[1] = Plasma pharmacokinetics of total radioactivity after a single oral dose of [^14C]PPI-1011 100 mg/kg; type: in vivo, Sprague-Dawley rats; conditions: single oral 100 mg/kg; for AUCInf / AUClast / Cmax / MRTInf / t1/2 / tmax / AUC Extr: plasma total radioactivity
Experimental: The pharmacokinetics of [^14C]PPI-1011 were performed in four rats that were surgically implanted with femoral artery catheters (FAC) for blood collection at least 2 days before dosing began. [^14C]PPI-1011 was administered as a single oral dose at 100 mg/kg (200 μCi/kg). Blood samples were collected in EDTA tubes and centrifuged to obtain plasma at 1, 3, 6, 12, 18, 24, 48, and 72 h after drug administration. Duplicate aliquots of plasma (∼25 μl or higher) were transferred to liquid scintillation vials and the weights of sample aliquots were recorded. Aliquots were mixed with Ultima Gold (5 ml) as scintillation fluid and total radioactivity was determined by liquid scintillation counting (LSC) and used to calculate the total radioactive concentration.
The PK calculations of total radioactivity in plasma were analyzed with non-compartmental analyses using Phoenix® WinNonlin® software (version 8.1). Statistical calculations for the other studies were limited to simple parameters such as means or averages, standard deviations (sd), and percentages (%). The amount of compound equivalents (Eq) in samples was calculated as concentrations expressed in μg Eq/g. Dose, MCID™ generated tissue concentrations, pharmacokinetic, and radioanalysis data were compiled using Microsoft Excel for Microsoft 365, Version 2010.

[2] = Mass balance and excretion study, single oral dose 100 mg/kg; type: in vivo, Sprague-Dawley rats
Experimental: Four male rats were administered a single oral dose of [^14C]PPI-1011 at 100 mg/kg (200 μCi/kg). Feces, urine, and the cage rinse samples were collected at pre-determined times up to 168 h post-dose (HPD). The expired air was collected using a carbon dioxide trapping apparatus equipped with airflow apparatus. Expired [^14C]CO2 was collected for two of the four dosed animals for 24 h after the dose in a solution of ethanolamine:2-methoxyethanol (1:3, v/v) in two traps. Rats were sacrificed by overdose of CO2 and each cage was rinsed with 25% ethanol in water (>50 ml) at the end of the study. The cage rinse sample and the expired [^14C]CO2 was stored at 4°C.
Diluted dose solutions, plasma, urine, and cage rinse were analyzed in duplicate by LSC, as described above. The expired CO2 was analyzed the same day it was collected by mixing a 1 ml aliquot of the carbon dioxide absorbents with 5 ml of Hionic-Fluor for radioactivity concentrations with LSC. Feces samples were homogenized in 5-fold volume of purified water then duplicate fecal homogenate aliquots were transferred to Combusto Cones and combusted with a Sample Oxidizer (Model A307, Perkin Elmer) equipped with an Oximate 80 Robotic Automatic Samples. The [^14C]CO2 generated by the combustion was also collected in Carbo Sorb E and radioactivity was determined with PermaFluor as the scintillant using a Tri-Carb LSC.

CC/C=C\C/C=C\C/C=C\C/C=C\C/C=C\C/C=C\CCC(=O)O[C@H](CO[14CH2]CCCCCCCCCCCCCCC)COC(=O)CCCCC1CCSS1 (stereo partly drawn) [[^14C]PPI-1011]
Mean total radioactivity in plasma ([1]; 1 h): approximately 500 ng Eq/g
Mean total radioactivity in plasma ([1]; 6 h): ~27,000 ng Eq/g
Mean total radioactivity in plasma ([1]; 72 h): ~4,000 ng Eq/g
AUCInf ([1]; Mean of 4 rats): 867,000 h*ng/ml
AUClast ([1]; Mean of 4 rats): 608,000 h*ng/ml
Cmax ([1]; Mean of 4 rats): 27,900 ng/ml
MRTInf ([1]; Mean of 4 rats): 55 h
t1/2 ([1]; Mean of 4 rats): 40 h
tmax ([1]; Mean of 4 rats): 7.5 h
AUC Extr ([1]; Rat 1): 6.8%
AUCInf ([1]; Rat 1): 753,000 h*ng/ml
AUClast ([1]; Rat 1): 702,000 h*ng/ml
Cmax ([1]; Rat 1): 30,000 ng/ml
MRTInf ([1]; Rat 1): 27 h
t1/2 ([1]; Rat 1): 18 h
tmax ([1]; Rat 1): 6.0 h
AUC Extr ([1]; Rat 2): 31%
AUCInf ([1]; Rat 2): 953,000 h*ng/ml
AUClast ([1]; Rat 2): 659,000 h*ng/ml
Cmax ([1]; Rat 2): 21,500 ng/ml
MRTInf ([1]; Rat 2): 61 h
t1/2 ([1]; Rat 2): 42 h
tmax ([1]; Rat 2): 6.0 h
AUC Extr ([1]; Rat 3): 6.5%
AUCInf ([1]; Rat 3): 542,000 h*ng/ml
AUClast ([1]; Rat 3): 507,000 h*ng/ml
Cmax ([1]; Rat 3): 42,500 ng/ml
MRTInf ([1]; Rat 3): 23 h
t1/2 ([1]; Rat 3): 19 h
tmax ([1]; Rat 3): 6.0 h
AUC Extr ([1]; Rat 4): 54%
AUCInf ([1]; Rat 4): 1,220,000 h*ng/ml
AUClast ([1]; Rat 4): 565,000 h*ng/ml
Cmax ([1]; Rat 4): 17,400 ng/ml
MRTInf ([1]; Rat 4): 110 h
t1/2 ([1]; Rat 4): 80 h
tmax ([1]; Rat 4): 12 h
Dose recovered in feces ([2]; 168 h collection period, single oral 100 mg/kg): 42.51 ± 7.16%
Total dose excreted in urine and feces ([2]; between 24 and 48 h): approximately 6%
Additional excretion in urine and feces ([2]; between 48 and 168 h): < 3%
Compound-associated radioactivity absorbed by the body ([2]; single oral 100 mg/kg): over 50%
Dose found in urine ([2]; up to day seven, single oral 100 mg/kg, 100 mg/kg): 2.40 ± 0.59% and < 2.5%
Dosed radioactivity recovered in urine and feces including cage rinses ([2]; within 168 h collection period, single oral 100 mg/kg): 45.10 ± 7.34%
Compound-associated radioactivity excreted in the feces ([2]; within the first 24 h): approximately 40%
Compound-associated radioactivity excreted in the urine ([2]; within the first 24 h): ~2.5%
